Source: EPA's ToxValDB 9.5 (doi:10.2903/j.efsa.2009.190r)

How the values were obtained:
Tagia sp. = details: acute; duration: 14 days; mortality
Rattus norvegicus = details: for NOAEL: inhalation
[1] = chronic, duration: 2 years, no effects
[2] = reproduction developmental, mortality
[3] = subchronic, duration: 90 days, no effects

SMILES | LC50 (Tagia sp.) | LD50 (Rattus norvegicus; acute, oral, mortality) | NOAEL (Rattus norvegicus; [1]) | NOAEL (Rattus norvegicus; [2]) | NOAEL (Rattus norvegicus; [3]) | NOAEL (Rattus norvegicus; developmental, duration: 10 days, development) | NOAEL (Rattus norvegicus; subchronic, duration: 90 days, mortality)
[Mg+2].[Mg+2].[Mg+2].[P-3].[P-3] [Magnesium phosphide] | 664 mg/kg | 11.2 mg/kg-day | 1.1 mg/kg-day | 1.9 mg/kg-day | 1.1 mg/kg-day |  | 
P [Phosphine] |  |  | 1.1 mg/kg-day | 1.9 mg/kg-day | 1.1 mg/kg-day | 1.9 mg/kg-day | 1.1 mg/kg-day
